# System: Plasmodium berghei
# Assay: Luciferase/luciferin-expressing antifolate-resistant parasites were used to infect a culture of HepG2 cells that were pre-incubated with compounds. Infected hepatocytes emit light due to the luciferase reaction. Assay results are presented as the percent inhibition of light emission compared to control. […]
# Assay type: functional
# Details: sporozoite; for IC90: read-out: LUCIFERASE INFECTION ASSAY - IC90
# [1] = read-out: LUCIFERASE INFECTION ASSAY - IC50
Compound,IC90,other results
CCOC(=O)c1ccccc1NC(=O)C1CCN(c2ncnc3sc(C)c(C)c23)CC1,> 10 µM,"IC50 (PBLUC_HILL_SLOPE 0.744, PBLUC_R_SQUARED 0.552, read-out: LUCIFERASE INFECTION ASSAY - IC50): 5.7 µM"
CCC(C)NCCCCOc1cc(C(C)C)ccc1C (stereo unspecified),> 10 µM,"IC50 (PBLUC_HILL_SLOPE 11.7, PBLUC_R_SQUARED 0.0741, read-out: LUCIFERASE INFECTION ASSAY - IC50): > 10 µM"
NC(Cc1ccccc1)c1csc(Nc2nncc3ccccc23)n1 (stereo unspecified),3.88 µM,"IC50 (HEPG2TOX_HILL_SLOPE 16.4, HEPG2TOX_R_SQUARED 0.287, PBLUC_HILL_SLOPE 15.9, PBLUC_R_SQUARED 0.415, read-out: LUCIFERASE INFECTION ASSAY - IC50): 3.38 µM"
Cc1cc(C)cc(Nc2ncnc3ccsc23)c1,> 10 µM,"IC50 (HEPG2TOX_HILL_SLOPE 6.98, HEPG2TOX_R_SQUARED 0.366, PBLUC_HILL_SLOPE 11.4, PBLUC_R_SQUARED 0.0607, read-out: LUCIFERASE INFECTION ASSAY - IC50): > 10 µM"
C(=N\c1ccc2ccccc2c1)/Nc1ccc2ccccc2c1,> 11.1 µM,"IC50 (HEPG2TOX_HILL_SLOPE 0.512, HEPG2TOX_R_SQUARED 0.0455, PBLUC_HILL_SLOPE 17.2, PBLUC_R_SQUARED 0.33, read-out: LUCIFERASE INFECTION ASSAY - IC50): 10.8 µM"
NC(c1csc(NC(=O)Nc2ccccc2-c2ccccc2)n1)C1CCCCC1 (stereo unspecified),> 8.12 µM,"IC50 (PBLUC_HILL_SLOPE 15.5, PBLUC_R_SQUARED 0.0255, read-out: LUCIFERASE INFECTION ASSAY - IC50): 7.57 µM"
FC(F)(F)Oc1ccc(Nc2nnc(Sc3ncnc4ccsc34)s2)cc1,> 10 µM,"IC50 (PBLUC_HILL_SLOPE 4.22, PBLUC_R_SQUARED 0.601, read-out: LUCIFERASE INFECTION ASSAY - IC50): 6.4 µM"
CC(=O)NC(C)CCc1ccc(-c2csc(-c3ccc(NC(=O)C4CC4)cc3)n2)cc1 (stereo unspecified),0.146 µM,"IC50 (PBLUC_HILL_SLOPE 9.6, PBLUC_R_SQUARED 0.721, read-out: LUCIFERASE INFECTION ASSAY - IC50): 0.116 µM"
COc1cccc(NC(=O)c2cc(C(C)(C)C)n(-c3ccccc3)c2C)c1,> 9.1 µM,"IC50 (PBLUC_HILL_SLOPE 0.223, PBLUC_R_SQUARED 0.111, read-out: LUCIFERASE INFECTION ASSAY - IC50): > 9.1 µM"
CCCOc1ccc2ccccc2c1CN(C)c1cncc(-n2cccn2)n1,> 10 µM,IC50 [1]: > 10 µM
CCCCCCOCC[N+](C)(CCOCCCCCC)CCOCCCCCC,1.08 µM,"IC50 (FFLUC_HILL_SLOPE 13.1, FFLUC_R_SQUARED 0.46, HEPG2TOX_HILL_SLOPE 1.63, HEPG2TOX_R_SQUARED 0.995, PBLUC_HILL_SLOPE 15.2, PBLUC_R_SQUARED 0.558, read-out: LUCIFERASE INFECTION ASSAY - IC50): 0.933 µM"
CN(C)C1(CNC(=O)c2ccc(Cl)c(S(=O)(=O)N(C)c3ccc(Cl)cc3)c2)CCCCC1,> 10 µM,"IC50 (PBLUC_HILL_SLOPE 3.05, PBLUC_R_SQUARED 0.312, read-out: LUCIFERASE INFECTION ASSAY - IC50): 8.97 µM"
CC(Sc1nc2ccsc2c(=O)n1C)c1ccc(F)cc1 (stereo unspecified),> 10 µM,"IC50 (PBLUC_HILL_SLOPE 11.9, PBLUC_R_SQUARED 0.0437, read-out: LUCIFERASE INFECTION ASSAY - IC50): > 10 µM"
COc1cc(OC)cc(C(=O)NC(=S)N(Cc2ccccc2)C(C)C)c1,> 10 µM,"IC50 (PBLUC_HILL_SLOPE 14.1, PBLUC_R_SQUARED 0.0494, read-out: LUCIFERASE INFECTION ASSAY - IC50): 8.89 µM"
N#Cc1ccc(/C=C/C(=O)c2cccc3ccccc23)cc1,7.94 µM,"IC50 (HEPG2TOX_HILL_SLOPE 12.4, HEPG2TOX_R_SQUARED 0.741, PBLUC_HILL_SLOPE 61.7, PBLUC_R_SQUARED 0.602, read-out: LUCIFERASE INFECTION ASSAY - IC50): 7.66 µM"
CC(C)Oc1ccccc1Nc1nc(=O)cn[nH]1,> 13.4 µM,IC50 [1]: > 13.4 µM
Cc1nc2n(C)c3ccccc3[n+]2c(C)c1C,> 10 µM,"IC50 (HEPG2TOX_HILL_SLOPE 3.01, HEPG2TOX_R_SQUARED 0.767, PBLUC_HILL_SLOPE 4.79, PBLUC_R_SQUARED 0.113, read-out: LUCIFERASE INFECTION ASSAY - IC50): 6.7 µM"

Compound,IC90,other results
CC(C)n1c(Sc2ncc([N+](=O)[O-])s2)nc2ccccc21,4.36 µM,"IC50 (FFLUC_HILL_SLOPE 5.73, FFLUC_R_SQUARED 0.583, HEPG2TOX_HILL_SLOPE 3.25, HEPG2TOX_R_SQUARED 0.992, PBLUC_HILL_SLOPE 9.74, PBLUC_R_SQUARED 0.283, read-out: LUCIFERASE INFECTION ASSAY - IC50): 3.48 µM"
O=C(CN1CCN(CCOc2ccccc2)CC1)Nc1cc(C(F)(F)F)ccc1Cl,> 10 µM,"IC50 (PBLUC_HILL_SLOPE 3.77, PBLUC_R_SQUARED 0.518, read-out: LUCIFERASE INFECTION ASSAY - IC50): 7.08 µM"
CCN(CC)S(=O)(=O)c1cccc(C(=O)c2c(C)c(Sc3ccc(Cl)cc3)c3ccccn23)c1,> 10 µM,"IC50 (FFLUC_HILL_SLOPE 1.47, FFLUC_R_SQUARED 0.14, read-out: LUCIFERASE INFECTION ASSAY - IC50): > 10 µM"
Cc1ccc(F)cc1NS(=O)(=O)c1ccc(-n2ncc(Cl)c(Cl)c2=O)cc1,6.47 µM,"IC50 (HEPG2TOX_HILL_SLOPE 2.56, 7.18, HEPG2TOX_R_SQUARED 0.970, 0.512, PBLUC_HILL_SLOPE 2.23, 0.224, PBLUC_R_SQUARED 0.767, 0.129, read-out: LUCIFERASE INFECTION ASSAY - IC50): 2.08 µM"
CSc1sc(-c2n[nH]cc2Br)c2c1C(=O)CC(C)(C)C2,> 8.89 µM,"IC50 (FFLUC_HILL_SLOPE 0.501, FFLUC_R_SQUARED 0.129, read-out: LUCIFERASE INFECTION ASSAY - IC50): > 8.89 µM"
Cc1nn2c(nc(NCCCc3n[nH]c(N)c3C#N)c3ccccc32)c1Cl,> 10 µM,IC50 [1]: > 10 µM
CC(C)Sc1ncccc1C(=O)N1CCN(c2oc(C3CC3)nc2C#N)CC1,> 10 µM,IC50 [1]: > 10 µM
CCOC(=O)c1c(N)sc(Sc2ccccc2[N+](=O)[O-])c1-c1ccccc1,> 10 µM,"IC50 (PBLUC_HILL_SLOPE 2.49, PBLUC_R_SQUARED 0.748, read-out: LUCIFERASE INFECTION ASSAY - IC50): 4.39 µM"
CC(c1ccc(-n2cncn2)cc1)N(C)S(=O)(=O)N1CCc2ccccc2C1 (stereo unspecified),> 10 µM,"IC50 (PBLUC_HILL_SLOPE 2.44, PBLUC_R_SQUARED 0.756, read-out: LUCIFERASE INFECTION ASSAY - IC50): 6.27 µM"
CN1/C(=C\C(=O)CSc2nnc3c(n2)[nH]c2ccccc23)C(C)(C)c2ccccc21,> 10 µM,"IC50 (HEPG2TOX_HILL_SLOPE 7.55, HEPG2TOX_R_SQUARED 0.316, read-out: LUCIFERASE INFECTION ASSAY - IC50): > 10 µM"
CCCn1c(C)cc(C(=O)COC(=O)C2=COCCO2)c1C,> 10 µM,"IC50 (FFLUC_HILL_SLOPE 0.919, FFLUC_R_SQUARED 0.757, PBLUC_HILL_SLOPE 0.614, PBLUC_R_SQUARED 0.12, read-out: LUCIFERASE INFECTION ASSAY - IC50): 0.839 µM"
CCOc1cc2c(cc1/C=C/C(=O)c1ccc3[nH]c(=O)[nH]c3c1)OC(C)C2 (stereo unspecified),> 10 µM,IC50 [1]: > 10 µM
Cc1cccc(Cn2nc(C(C)(C)C)cc2-c2nnc(SCC(=O)c3ccccc3)o2)c1,> 7.39 µM,"IC50 (FFLUC_HILL_SLOPE 16.7, FFLUC_R_SQUARED 0.464, PBLUC_HILL_SLOPE 10.3, PBLUC_R_SQUARED 0.0963, read-out: LUCIFERASE INFECTION ASSAY - IC50): > 7.39 µM"
CCCn1nc(C(=O)NCC(c2ccc(OC)cc2)N2CCOCC2)c2ccccc2c1=O (stereo unspecified),> 10 µM,"IC50 (HEPG2TOX_HILL_SLOPE 1.06, HEPG2TOX_R_SQUARED 0.0699, read-out: LUCIFERASE INFECTION ASSAY - IC50): > 10 µM"
CCOc1ccc(-n2c(C)cc(/C=C(\C#N)c3ccccn3)c2C)cc1,> 10 µM,"IC50 (PBLUC_HILL_SLOPE 2.96, PBLUC_R_SQUARED 0.363, read-out: LUCIFERASE INFECTION ASSAY - IC50): 8.53 µM"
COCCCNC1=NN=C(c2cc(C)n(-c3ccccc3F)c2C)CS1,9.7 µM,"IC50 (HEPG2TOX_HILL_SLOPE 3.65, HEPG2TOX_R_SQUARED 0.669, PBLUC_HILL_SLOPE 1.05, PBLUC_R_SQUARED 0.653, read-out: LUCIFERASE INFECTION ASSAY - IC50): 1.2 µM"

# Source: ChEMBL document CHEMBL4483862, “Open-source discovery of chemical leads for next-generation chemoprotective antimalarials” (2018)
